Publication PMC10191434 (2023)

System: modified procaine-binding aptamer (new sequence) (DNA, aptamer) AGACAAGGAAAATCCTTCAACGAAGTGGGTCG
Test: square-wave voltammetry, EAB sensor titration
Details: undiluted bovine CSF, 37 °C, immobilised aptamer; for binding: highest concentration not given

| binding | Kd (Langmuir-Hill fit, ± is 95% confidence) | SMILES |
| --- | --- | --- |
| no | – | CCN(CC)CCO |
| no | – | Nc1ccc(C(=O)O)cc1 |
| – | 960 ± 30 µM | CCN(CC)CCOC(=O)c1ccc(N)cc1 |
